Results taken from patent publication US20160120915A1, “METHODS FOR MANIPULATING IMMUNE RESPONSES BY ALTERING MICROBIOTA” (NEW YORK UNIVERSITY, priority 2013, published 2016).
Where a name gives a salt, the structure may show the parent alone.

System: terminal ileum
Test: NOD: ileal gene expression profiling by microarray
Type: in vivo, NOD mice
Settings: for differentially regulated genes that were down: PAT vs Control
Procedure: Ileal gene expression profiling of 6-week control, STAT, and PAT animal groups, was performed using the Affymetrix Genechip system (Affymetrix, Santa Clara Calif.). Total RNA quality and quantity were determined using the Nanodrop ND-1000, agarose gel, and Agilent 2100 Bioanalyser. Total RNA (100 ng) was used to prepare cDNA following the Affymetrix 3′IVT Express Kit labeling protocol (Affymetrix). Standardized array processing procedures recommended by Affymetrix were performed, including hybridization, fluidics processing and scanning of the Affymetrix Mouse Genome 430 2.0 Array chips. The affy package in R was used to normalize the raw data (Affymetrix CEL files) by Robust Multichip Average (RMA) algorithm. Then the limma package was used to identify regulated genes between groups and generate lists of differentially expressed genes using linear models and empirical Bayes method with an FDR-adjusted p-value cut-off of p<0.05 (Smyth, 2004, Statistical Applications in Genetics and Molecular Biology 3, No. 1, Article 3).
RNA was extracted from the terminal ileum of the 6-week old NOD mice. Raw probe intensities were normalized by the Robust Multichip Average (RMA) algorithm using affy package in R and then the limma package was used to identify regulated genes using linear models and empirical Bayes method with an FDR-adjusted p-value cut off of p<0.05 (Smyth 2004, Statistical Applications in Genetics and Molecular Biology 3, No. 1, Article 3.).

[1] = terminal ileum, NOD male mice, microarray
[2] = terminal ileum, NOD male mice, microarray, probe with greatest fold change

CC[C@H]1OC(=O)C[C@@H](O)[C@H](C)[C@@H](O[C@@H]2O[C@H](C)[C@@H](O[C@H]3C[C@@](C)(O)[C@@H](O)[C@H](C)O3)[C@H](N(C)C)[C@H]2O)[C@@H](CC=O)C[C@@H](C)C(=O)/C=C/C(C)=C/[C@@H]1CO[C@@H]1O[C@H](C)[C@@H](O)[C@@H](OC)[C@H]1OC [Tylosin, Tylosin tartrate]
differentially regulated genes that were down (NOD females): 42.1%
differentially regulated genes that were down (NOD males): 69.3%
log2 fold change (PAT/control), Arl5b [1]: 2.42
log2 fold change (PAT/control), Bhmt [1]: −1.52
log2 fold change (PAT/control), Ccl20 [1]: −0.86
log2 fold change (PAT/control), Clec2d [1]: −0.65
log2 fold change (PAT/control), Dio1 [1]: −1.34
log2 fold change (PAT/control), Dusp14 [1]: 2.22
log2 fold change (PAT/control), Edn2 [1]: −1.67
log2 fold change (PAT/control), Ereg [1]: 1.73
log2 fold change (PAT/control), G6pc [1]: −2.85
log2 fold change (PAT/control), Gjb3 [1]: 0.77
log2 fold change (PAT/control), Gzma [1]: −1.48
log2 fold change (PAT/control), Il1rn [1]: 1.70
log2 fold change (PAT/control), Il17rd [1]: −0.58
log2 fold change (PAT/control), Irf1 [1]: −1.14
log2 fold change (PAT/control), Maff [1]: 2.22
log2 fold change (PAT/control), Phlda1 [1]: 1.96
log2 fold change (PAT/control), S100a14 [1]: 1.00
log2 fold change (PAT/control), Saa1 [1]: −4.00
log2 fold change (PAT/control), Saa2 [1]: −1.44
log2 fold change (PAT/control), Tifa [1]: −1.32
log2 fold change (PAT/control), Tppp [1]: −1.35
log2 fold change (PAT/control), Acsl3 [2]: 1.59
log2 fold change (PAT/control), Ccl28 [2]: −0.64
log2 fold change (PAT/control), Cd38 [2]: −1.02
log2 fold change (PAT/control), Chka [2]: 1.97
log2 fold change (PAT/control), Flrt3 [2]: 2.56
log2 fold change (PAT/control), Il1rl1 [2]: 1.64
log2 fold change (PAT/control), Klf4 [2]: 0.86
log2 fold change (PAT/control), Slc2a1 [2]: 1.26
log2 fold change (PAT/control), Socs2 [2]: −0.77
log2 fold change (PAT/control), Tnfrsf12a [2]: 1.72
log2 fold change (PAT/control), Tnfsf10 [2]: −1.46
log2 fold change (PAT/control), Zfand2a [2]: 2.11
log2 fold change (PAT/control), Rab30 (terminal ileum, PAT-treated NOD male mice, 6-week, microarray): 4.27
log2 fold change (PAT/control), Areg (terminal ileum, PAT-treated NOD male mice, microarray): 3.94
